We go through nine compounds from patent publication US8729091B2, “4-phenoxy-nicotinamide or 4-phenoxy-pyrimidine-5-carboxamide compounds” (Hoffmann-La Roche Inc., priority 2010, dated 2014).

The target in the assay is T1, human GPBAR1 receptor (Homo sapiens, UniProt Q8TDU6).
T1 construct: expressed in transfected cells
T1 sequence (Q8TDU6 1-330): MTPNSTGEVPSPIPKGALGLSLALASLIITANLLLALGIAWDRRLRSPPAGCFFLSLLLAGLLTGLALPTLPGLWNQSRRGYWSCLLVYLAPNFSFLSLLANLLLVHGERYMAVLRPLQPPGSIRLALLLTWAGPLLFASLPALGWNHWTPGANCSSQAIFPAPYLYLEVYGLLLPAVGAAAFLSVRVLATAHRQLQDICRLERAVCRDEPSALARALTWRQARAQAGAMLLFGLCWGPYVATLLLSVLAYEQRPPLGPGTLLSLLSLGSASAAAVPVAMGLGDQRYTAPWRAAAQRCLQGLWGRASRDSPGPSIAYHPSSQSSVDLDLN
In words: functional cAMP assay in CHO-dhfr(minus) cells expressing human GPBAR1 receptors. The class given is cell-based. Conditions: cAMP increase (TR-FRET) in CHO-dhfr(minus) cells expressing human GPBAR1; compounds incubated 30 min at 30° C. The gist of the method:
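Agonist cAMP read-out: stable GPBAR1 CHO-dhfr− clone, 30 min compound exposure at 30° C following 30 min IBMX (1 mM) preincubation in Krebs Ringer bicarbonate. Time-resolved energy-transfer detection gives EC50; parental CHO cells serve as counter-screen.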
Background: Cyclic AMP is a second messenger, typically raised through Gs and lowered through Gi signalling.
The EC50 is the concentration that produces a half-maximal response. A low value points to higher potency in that assay. Consider `Cc1cc(Oc2cc(Cl)c(C(=O)NCC(=O)O)cc2Cl)c(C(=O)N2CCN(C3CC3)c3ccccc32)cn1` [Example 70, {2,5-Dichloro-4-[5-(4-cyclopropyl-3,4-dihydro-2H-quinoxaline-1-carbonyl)-2-methyl-pyridin-4-yloxy]-benzoylamino}-acetic acid], for which it took 400 nM to reach a half-maximal effect (EC50).

Compound `Cc1cc(Oc2cc(Cl)c(C(=O)Nc3nnn[nH]3)cc2Cl)c(C(=O)N2CCN(C3CC3)c3ccccc32)cn1` [Example 71, 2,5-Dichloro-4-[5-(4-cyclopropyl-3,4-dihydro-2H-quinoxaline-1-carbonyl)-2-methyl-pyridin-4-yloxy]-N-(1H-tetrazol-5-yl)-benzamide] displayed an EC50 of 100 nM.

In turn, `Cc1cc(Oc2cc(Cl)c(C(=O)NCc3nnn[nH]3)cc2Cl)c(C(=O)N2CCN(C3CC3)c3ccccc32)cn1` [Example 72, 2,5-Dichloro-4-[5-(4-cyclopropyl-3,4-dihydro-2H-quinoxaline-1-carbonyl)-2-methyl-pyridin-4-yloxy]-N-(1H-tetrazol-5-ylmethyl)-benzamide] came in with an EC50 of 400 nM.

Take `Cc1cc(Oc2cc(Cl)ccc2Cl)c(C(=O)N2CCN(C3CC3)c3ccccc32)c(Cl)n1` [Example 73, [2-Chloro-4-(2,5-dichloro-phenoxy)-6-methyl-pyridin-3-yl]-(4-cyclopropyl-3,4-dihydro-2H-quinoxalin-1-yl)-methanone]: the midpoint of the response, the EC50, lay at 50 nM.

Compound `O=C(c1cnc(Cl)cc1Oc1cc(Cl)ccc1Cl)N1CCCc2ccccc21` [Example 74, [6-Chloro-4-(2,5-dichloro-phenoxy)-pyridin-3-yl]-(3,4-dihydro-2H-quinolin-1-yl)-methanone] displayed an EC50 of 22 nM.

For `O=C(c1c[n+]([O-])ccc1Oc1cc(Cl)ccc1Cl)N1CCN(C2CC2)c2ccccc21` [Example 75, (4-Cyclopropyl-3,4-dihydro-2H-quinoxalin-1-yl)-[4-(2,5-dichloro-phenoxy)-1-oxy-pyridin-3-yl]-methanone], the midpoint of the response, the EC50, lay at 10 nM. This EC50 lies about 2.2-fold lower than the previous one.

In the case of `O=C(c1cncnc1Oc1cc(Cl)ccc1Cl)N1CCCc2cc(F)ccc21` [Example 77, [4-(2,5-Dichloro-phenoxy)-pyrimidin-5-yl]-(6-fluoro-3,4-dihydro-2H-quinolin-1-yl)-methanone], the EC50 was 400 nM.

Consider `O=C(c1cncnc1Oc1cc(Cl)ccc1Cl)N1CCNc2ccccc21` [Example 78, [4-(2,5-Dichloro-phenoxy)-pyrimidin-5-yl]-(3,4-dihydro-2H-quinoxalin-1-yl)-methanone], for which it took 300 nM to reach a half-maximal effect (EC50).

`COc1ncccc1N(C)C(=O)c1cncnc1Oc1cc(Cl)ccc1Cl` [Example 80, 4-(2,5-Dichloro-phenoxy)-pyrimidine-5-carboxylic acid (2-methoxy-pyridin-3-yl)-methyl-amide] yielded an EC50 of 90 nM.
